From article PMC12668308, “A Novel Antimalarial Agent that Inhibits Protein Synthesis in Plasmodium falciparum” (Angewandte Chemie (International Ed. in English), 2025)

Assays:
[1] = Metabolic stability in liver S9 fractions; type: in vitro ADME; settings: pooled mouse liver S9 fraction; 1 μM compound, 1 mg/mL pooled mouse liver S9, 37 °C; read-out: t1/2 Mouse Liver S9
Method: To evaluate phase I and phase II metabolic stability, the compound (1 μM) was incubated at 37 °C for 240 min with 1 mg/mL pooled mouse liver S9 fraction (Xenotech, Kansas City, USA), 2 mM NADPH, 1 mM UDPGA, 10 mM MgCl2, 5 mM GSH and 0.1 mM PAPS. Metabolic stability of reference compounds: testosterone, verapamil and ketoconazole was determined in parallel to confirm the enzymatic activity of mouse S9 fractions. At defined time points, the incubation was stopped by precipitation of aliquots of S9 enzymes with 2 volumes of cold acetonitrile containing internal standard (150 nM diphenhydramine or 15 nM for Altis Plus measurements). Samples were kept on ice until the end of the incubation, after which precipitated protein was removed by centrifugation (15 min, 4 °C, 4,000 g).

[2] = tested on: 60S ribosomal protein L7 (W7KAU4); assay: iSPP profiling, P. falciparum lysate; type: binding, Plasmodium falciparum
[3] = tested on: dolichyl-diphosphooligosaccharide--protein glycotransferase (W7K3H0); assay: iSPP profiling, P. falciparum lysate; type: binding, Plasmodium falciparum
Method: (§1) P. falciparum NF54 lysates were extracted as described in ^[26^] . The parasite asynchronous culture was extracted once 3-5% parasitemia was reached. Saponin lysis was done as described in 2.2.10. Once the parasite pellet was obtained, 2.5 volumes of ice-cold lysis buffer (50 mM Tris/HCl pH 7.5 (Avantor), 5% glycerol (Sigma-Aldrich), 150 mM NaCl (Carl Roth), 1.5 mM MgCl2 (Sigma-Aldrich), 1 mM DTT (Carl Roth), 0.8% IGEPAL CA-630 (Sigma-Aldrich), 1X Halt Protease and Phosphatase Inhibitor-Cocktails EDTA-free (Thermo Fisher Scientific)) was added to the parasite pellet. The lysate solution was subjected to three cycles of flash freeze-thaw with liquid nitrogen and ddH2O at RT. The lysates were centrifuged at 20,000 g for 20 minutes at 4 °C. The soluble protein fraction (supernatant) was collected and the protein content was quantified using the BCA assay (Pierce™ BCA Protein Assay Kit, Thermo Fisher Scientific). The lysate was stored at -80 °C until further use.
(§2) The P. falciparum lysate was thawed on ice and diluted to 0.8 mg/mL. […] Subsequently, the samples were incubated at room temperature for 30 minutes using a rotating mixer. After distribution into a 96-well plate, the samples were treated with increasing concentrations of A.E.A. (v/v) ranging from 14% to 28% (14, 16, 18, 20, 22, 24, 26, and 28%). Following a 20-minute incubation at 37°C with shaking at 750 rpm, the samples were centrifuged at 4400 g for 35 minutes to remove precipitated proteins. The soluble fractions were then pooled in equal volumes into a single sample using the Bravo Automated Liquid Handling Platform. The pooled samples were subsequently prepared for LC-MS/MS analysis.
(§3) The raw LFQ-DIA intensity values of biological replicates across all conditions were normalized to the median abundance using Excel. The normalized values were then log2 transformed in Perseus (v2.0.10.0).^[58^] Missing values were imputed from a normal distribution (width 0.3, down shift 1.5), and p-values were obtained using a two-sample t-test over replicates with a permutation-based false discovery rate correction (FDR 0.05). Volcano plots were generated in RStudio using the EnhancedVolcano package (v. 1.20.0), ^[59^] plotting proteins by statistical significance (y-axis: –Log10 p-value) versus the magnitude of change (x-axis: log2 fold change of protein intensities for each compound condition relative to the vehicle control). The heatmap was generated in Perseus (v2.0.10.0). Dose-dependent curves were generated using normalized protein intensity values, expressed as a ratio to the vehicle control. Plots were created in GraphPad Prism (v8.3.0) using a nonlinear regression model.

[4] = tested on: 60S ribosomal protein L4 (W7KB54); assay: iSPP profiling, P. falciparum lysate; type: binding, Plasmodium falciparum
Method: as §1, §2, §3

[5] = tested on: Phospholipid-transporting ATPase (W7JSF3;W7K4C4); assay: iSPP profiling, P. falciparum lysate; type: binding, Plasmodium falciparum
Method: as §1, §2, §3

[6] = tested on: HepG2; assay: Cytotoxicity assay (MTT); type: cell-based, human
Method: (§4) HepG2 (2x10^4 cells per well) were seeded in 96-well flat-bottom culture plates in 100 µL of culture medium (DMEM containing 10% fetal calve serum and 1% penicillin-streptomycin). After 24 hours, the medium was replaced by fresh medium containing test compounds in a final DMSO concentration of 1%. […] Epirubicin and doxorubicin were used as positive controls in serial dilutions starting from 10 µM, and rifampicin was used as a negative control (at 100 µM). Cell viability was determined 48 h after treatment with compounds by adding 0.1 volumes of 3-(4,5-dimethylthiazol-2-yl)-2,5-diphenyltetrazolium bromide (MTT) solution (5 mg/mL sterile PBS) (Sigma, St. Louis, MO) to the wells. After incubating the cells for 30 min at 37 °C (atmosphere containing 5% CO2), medium was removed and MTT crystals were dissolved in 75 µL of a solution containing 10% SDS and 0.5% acetic acid in DMSO. The optical density (OD) of the samples was measured photometrically at 570 nm in a PHERAstar Omega plate reader (BMG labtech, Ortenberg, Germany). Percent viability was calculated by normalizing sample ODs to those of the DMSO controls. Each compound was tested in at least two independent experiments and CC50 values were determined using the nonlinear regression function of GraphPad Prism 10 (GraphPad Software, San Diego, CA, USA).

[7] = Cytotoxicity assay (MTT); type: cell-based, human; settings: human, HepG2 cells; HepG2, 48 h, MTT; mean ± s.d.
Method: as §4

Structure (SMILES): CN1CCN(Cc2ccc(O)c(NC(=O)c3cccc(Oc4cc(C(F)(F)F)ccn4)c3)c2)CC1 [Compound 31, N-(2-hydroxy-5-((4-methylpiperazin-1-yl)methyl)phenyl)-3-((4-(trifluoromethyl)pyridin-2-yl)oxy)benzamide]
- half-life at 1 µM [1]: 42.7 ± 3.7 min
- log2FC ([2]; 10 µM): 0.75
- log2FC ([2]; 50 µM): 0.94
- log2FC ([2]; 100 µM): 0.74
- log2FC ([2]; 10^-2 µM): 0.69
- log2FC ([2]; 10^-3 µM): 0.33
- log2FC ([3]; 10 µM): 0.53
- log2FC ([3]; 50 µM): 0.72
- log2FC ([3]; 100 µM): 0.44
- log2FC ([3]; 10^-2 µM): 0.59
- log2FC ([4]; 10 µM): 0.49
- log2FC ([4]; 50 µM): 0.63
- log2FC ([4]; 100 µM): 0.50
- log2FC ([4]; 10^-2 µM): 0.41
- log2FC ([4]; 10^-3 µM): 0.21
- log2FC ([5]; 10 µM): 0.33
- log2FC ([5]; 50 µM): 0.36
- log2FC ([5]; 100 µM): 0.30
- log2FC ([5]; 10^-2 µM): 0.36
- log2FC ([5]; 10^-3 µM): 0.20
- selectivity index (CC50/IC50) ([6]; HepG2 CC50 / P. falciparum IC50): 9,487
- inhibition at 100 µM ([6]; Homo sapiens, HepG2, 100 µM, 48 h, MTT): 87 ± 5%
- CC50 at 48 h [7]: 37 µM
